# Laboratory results taken from patent US20250296938A1, “Compounds that Interact with the Ras Superfamily for the Treatment of Cancers, Inflammatory Diseases, Rasopathies, and Fibrotic Disease” (SHY Therapeutics, LLC, priority 2018, published 2025).
# Where two headings read alike, the source gives them in different places.
# Columns and labels:
# Experiment in all cases: Ras GTP binding domain inhibition assay (Cy3-GTP/Cy5-GTP competition)
# [1] = test system: KRas G12C mutant; design: species or system human; conditions: 20 μM; for KRas G12C mutant + SOS: % inh.: with SOS; for KRas G12C mutant: % inh.: without SOS
# Outline: (§1)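 His-tagged Ras proteins were captured on nickel-coated wells in Buffer-I (25 mM Tris-HCl pH 7.4, 27 mM KCl, 137 mM NaCl, 1 mM MgCl2, 1 mM DTT) or Buffer-II (50 mM Tris-HCl pH 7.0). Compounds (20 μM or serial dilution, 1% DMSO) were incubated 3 h at RT, ±Sos(556-1049) in the final hour. Bound Cy3-/Cy5-GTP (100 nM, 45 min) was read after washing.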
# [2] = test system: KRas Q61H mutant; design: species or system human; conditions: 20 μM; for KRas Q61H mutant + SOS: % inh.: with SOS; for KRas Q61H mutant: % inh.: without SOS
# Outline: as §1
# [3] = test system: KRas wild type; design: species or system human; conditions: 20 μM; for KRas wild type + SOS: % inh.: with SOS; for KRas wild type: % inh.: without SOS
# Outline: as §1
# [4] = target: T1, KRas G12D mutant (Homo sapiens, UniProt P01116, G12D); conditions: 20 μM
# T1 construct: fused on or other part: His tag, used for capture on nickel-coated plates
# Outline: as §1
# [5] = with SOS, read-out: KRas G-12D mutant + SOS: % inh.
# [6] = without SOS, read-out: KRas G12D mutant: % inh.
smiles,measurement,setting,value
COc1cccc(Cn2ccnc2-c2nc(O)c3scc(-c4ccccn4)c3n2)c1 [drawing 850],KRas G12C mutant + SOS: % inh.,[1],D (76-100% inhibition)
same,KRas G12C mutant: % inh.,[1],C (51-75% inhibition)
same,KRas Q61H mutant + SOS: % inh.,[2],D (76-100% inhibition)
same,KRas Q61H mutant: % inh.,[2],C (51-75% inhibition)
same,KRas wild type + SOS: % inh.,[3],C (51-75% inhibition)
same,KRas wild type: % inh.,[3],C (51-75% inhibition)
same,inhibition at 20 µM,[4]; [5],51 to 75%
same,inhibition at 20 µM,[4]; [6],76 to 100%
Oc1nc(-c2nccn2Cc2ccccn2)nc2c(-c3ccccn3)csc12 [drawing 851],KRas G12C mutant + SOS: % inh.,[1],D (76-100% inhibition)
same,KRas G12C mutant: % inh.,[1],D (76-100% inhibition)
same,KRas Q61H mutant + SOS: % inh.,[2],D (76-100% inhibition)
same,KRas Q61H mutant: % inh.,[2],C (51-75% inhibition)
same,KRas wild type + SOS: % inh.,[3],C (51-75% inhibition)
same,KRas wild type: % inh.,[3],D (76-100% inhibition)
same,inhibition at 20 µM,[4]; [5],51 to 75%
same,inhibition at 20 µM,[4]; [6],76 to 100%
COCCn1ccnc1-c1nc(O)c2scc(-c3ccccn3)c2n1 [drawing 852],KRas G12C mutant + SOS: % inh.,[1],D (76-100% inhibition)
same,KRas G12C mutant: % inh.,[1],C (51-75% inhibition)
same,KRas Q61H mutant + SOS: % inh.,[2],C (51-75% inhibition)
same,KRas Q61H mutant: % inh.,[2],C (51-75% inhibition)
same,KRas wild type + SOS: % inh.,[3],C (51-75% inhibition)
same,KRas wild type: % inh.,[3],D (76-100% inhibition)
same,inhibition at 20 µM,[4]; [5],51 to 75%
same,inhibition at 20 µM,[4]; [6],76 to 100%
Cn1ccnc1-c1nc(O)c2scc(-c3ccccn3)c2n1 [drawing 853],KRas G12C mutant + SOS: % inh.,[1],C (51-75% inhibition)
same,KRas G12C mutant: % inh.,[1],D (76-100% inhibition)
same,KRas Q61H mutant + SOS: % inh.,[2],C (51-75% inhibition)
same,KRas Q61H mutant: % inh.,[2],D (76-100% inhibition)
same,KRas wild type + SOS: % inh.,[3],C (51-75% inhibition)
same,KRas wild type: % inh.,[3],D (76-100% inhibition)
same,inhibition at 20 µM,[4]; [5],51 to 75%
same,inhibition at 20 µM,[4]; [6],76 to 100%
COCC(C)Nc1nc(-c2nccn2C)nc2sc(-c3ccccc3Cl)c(-c3cscn3)c12 (stereo not drawn) [drawing 854],KRas G12C mutant + SOS: % inh.,[1],D (76-100% inhibition)
same,KRas G12C mutant: % inh.,[1],C (51-75% inhibition)
same,KRas Q61H mutant + SOS: % inh.,[2],D (76-100% inhibition)
same,KRas Q61H mutant: % inh.,[2],C (51-75% inhibition)
same,KRas wild type + SOS: % inh.,[3],D (76-100% inhibition)
same,KRas wild type: % inh.,[3],B (26-50% inhibition)
same,inhibition at 20 µM,[4]; [5],51 to 75%
same,inhibition at 20 µM,[4]; [6],51 to 75%
COCC(C)Nc1nc(-c2nccn2C)nc2sc(-c3cccc(OC)c3)c(-c3cscn3)c12 (stereo not drawn) [drawing 855],KRas G12C mutant + SOS: % inh.,[1],D (76-100% inhibition)
same,KRas G12C mutant: % inh.,[1],B (26-50% inhibition)
same,KRas Q61H mutant + SOS: % inh.,[2],D (76-100% inhibition)
same,KRas Q61H mutant: % inh.,[2],C (51-75% inhibition)
same,KRas wild type + SOS: % inh.,[3],D (76-100% inhibition)
same,KRas wild type: % inh.,[3],B (26-50% inhibition)
same,inhibition at 20 µM,[4]; [5],51 to 75%
same,inhibition at 20 µM,[4]; [6],51 to 75%
COC1CCN(c2nc(-c3nccn3C)nc3sc(-c4ccn(C)n4)c(-c4ccccc4)c23)CC1 [drawing 856],KRas G12C mutant + SOS: % inh.,[1],C (51-75% inhibition)
same,KRas G12C mutant: % inh.,[1],B (26-50% inhibition)
same,KRas Q61H mutant + SOS: % inh.,[2],C (51-75% inhibition)
same,KRas Q61H mutant: % inh.,[2],B (26-50% inhibition)
same,KRas wild type + SOS: % inh.,[3],B (26-50% inhibition)
same,KRas wild type: % inh.,[3],0 (0% inhibition)
same,inhibition at 20 µM,[4]; [5],26 to 50%
same,inhibition at 20 µM,[4]; [6],26 to 50%
Cn1ccc(-c2sc3nc(-c4nccn4C)nc(N4CCC5(CCOC5)C4)c3c2-c2ccccc2)n1 (stereo not drawn) [drawing 857],KRas G12C mutant + SOS: % inh.,[1],B (26-50% inhibition)
same,KRas G12C mutant: % inh.,[1],A (1-25% inhibition)
same,KRas Q61H mutant + SOS: % inh.,[2],B (26-50% inhibition)
same,KRas Q61H mutant: % inh.,[2],B (26-50% inhibition)
same,KRas wild type + SOS: % inh.,[3],A (1-25% inhibition)
same,KRas wild type: % inh.,[3],A (1-25% inhibition)
same,inhibition at 20 µM,[4]; [5],1 to 25%
same,inhibition at 20 µM,[4]; [6],26 to 50%
COCC1CCN(c2nc(-c3nccn3C)nc3sc(-c4ccn(C)n4)c(-c4ccccc4)c23)C1 (stereo not drawn) [drawing 858],KRas G12C mutant + SOS: % inh.,[1],C (51-75% inhibition)
same,KRas G12C mutant: % inh.,[1],B (26-50% inhibition)
same,KRas Q61H mutant + SOS: % inh.,[2],D (76-100% inhibition)
same,KRas Q61H mutant: % inh.,[2],C (51-75% inhibition)
same,KRas wild type + SOS: % inh.,[3],C (51-75% inhibition)
same,KRas wild type: % inh.,[3],0 (0% inhibition)
same,inhibition at 20 µM,[4]; [5],26 to 50%
same,inhibition at 20 µM,[4]; [6],26 to 50%
CO[C@@H]1CCC(Nc2nc(-c3nccn3C)nc3sc(-c4ccn(C)n4)c(-c4ccccc4)c23)C1 (stereo partly drawn) [drawing 859],KRas G12C mutant + SOS: % inh.,[1],C (51-75% inhibition)
same,KRas G12C mutant: % inh.,[1],A (1-25% inhibition)
same,KRas Q61H mutant + SOS: % inh.,[2],C (51-75% inhibition)
same,KRas Q61H mutant: % inh.,[2],B (26-50% inhibition)
same,KRas wild type + SOS: % inh.,[3],C (51-75% inhibition)
same,KRas wild type: % inh.,[3],A (1-25% inhibition)
same,inhibition at 20 µM,[4]; [5],26 to 50%
same,inhibition at 20 µM,[4]; [6],26 to 50%
CO[C@H]1CCC(Nc2nc(-c3nccn3C)nc3sc(-c4ccn(C)n4)c(-c4ccccc4)c23)C1 (stereo partly drawn) [drawing 860],KRas G12C mutant + SOS: % inh.,[1],D (76-100% inhibition)
same,KRas G12C mutant: % inh.,[1],B (26-50% inhibition)
same,KRas Q61H mutant + SOS: % inh.,[2],D (76-100% inhibition)
same,KRas Q61H mutant: % inh.,[2],B (26-50% inhibition)
same,KRas wild type + SOS: % inh.,[3],D (76-100% inhibition)
same,KRas wild type: % inh.,[3],B (26-50% inhibition)
same,inhibition at 20 µM,[4]; [5],51 to 75%
same,inhibition at 20 µM,[4]; [6],26 to 50%
Cn1ccc(-c2sc3nc(-c4nccn4C)nc(NCC4CCOC4)c3c2-c2ccccc2)n1 (stereo not drawn) [drawing 861],KRas G12C mutant + SOS: % inh.,[1],C (51-75% inhibition)
same,KRas G12C mutant: % inh.,[1],0 (0% inhibition)
same,KRas Q61H mutant + SOS: % inh.,[2],C (51-75% inhibition)
same,KRas Q61H mutant: % inh.,[2],B (26-50% inhibition)
same,KRas wild type + SOS: % inh.,[3],B (26-50% inhibition)
same,KRas wild type: % inh.,[3],0 (0% inhibition)
same,inhibition at 20 µM,[4]; [5],1 to 25%
same,inhibition at 20 µM,[4]; [6],26 to 50%
Cn1ccc(-c2sc3nc(-c4nccn4C)nc(NC4CCOCC4)c3c2-c2ccccc2)n1 [drawing 862],KRas G12C mutant + SOS: % inh.,[1],A (1-25% inhibition)
same,KRas G12C mutant: % inh.,[1],0 (0% inhibition)
same,KRas Q61H mutant + SOS: % inh.,[2],B (26-50% inhibition)
same,KRas Q61H mutant: % inh.,[2],B (26-50% inhibition)
same,KRas wild type + SOS: % inh.,[3],B (26-50% inhibition)
same,KRas wild type: % inh.,[3],B (26-50% inhibition)
same,inhibition at 20 µM,[4]; [5],1 to 25%
same,inhibition at 20 µM,[4]; [6],1 to 25%
COC1CCN(c2nc(-c3nccn3C)nc3sc(-c4ccn(C)n4)c(-c4ccccc4)c23)C1 (stereo not drawn) [drawing 863],KRas G12C mutant + SOS: % inh.,[1],B (26-50% inhibition)
same,KRas G12C mutant: % inh.,[1],A (1-25% inhibition)
same,KRas Q61H mutant + SOS: % inh.,[2],C (51-75% inhibition)
same,KRas Q61H mutant: % inh.,[2],B (26-50% inhibition)
same,KRas wild type + SOS: % inh.,[3],B (26-50% inhibition)
same,KRas wild type: % inh.,[3],A (1-25% inhibition)
same,inhibition at 20 µM,[4]; [5],1 to 25%
same,inhibition at 20 µM,[4]; [6],1 to 25%
COCC(C)Nc1nc(-c2nccn2C)nc2sc(-c3ccn(C)n3)c(-c3ccccc3)c12 (stereo not drawn) [drawing 864],KRas G12C mutant + SOS: % inh.,[1],C (51-75% inhibition)
same,KRas G12C mutant: % inh.,[1],0 (0% inhibition)
same,KRas Q61H mutant + SOS: % inh.,[2],C (51-75% inhibition)
same,KRas Q61H mutant: % inh.,[2],0 (0% inhibition)
same,KRas wild type + SOS: % inh.,[3],C (51-75% inhibition)
same,KRas wild type: % inh.,[3],0 (0% inhibition)
same,inhibition at 20 µM,[4]; [5],26 to 50%
same,inhibition at 20 µM,[4]; [6],1 to 25%
